# Experimental data from patent US20260000655A1, “PHARMACEUTICAL COMPOSITION FOR USE IN PREVENTION OR TREATMENT OF LIFESTYLE-RELATED DISEASE” (priority 2022, published 2026).
# How the values were obtained:
# adipocyte model 3T3-L1 = assay: Cytotoxicity (MTT reagent); type: cell-based, mouse; details: HPH-15 1 μM, 10 μM or 50 μM, 24 hours
# Description: It was examined whether using HPH-15 as a drug caused any cytotoxicity.
# The myotube cell model L6-GLUT4myc, the liver cell model HepG2 cells, and the adipocyte model 3T3-L1 used in Example 1 were each seeded onto a 24-well plate (1×10^5 cells/well, […] of culture liquid) and cultured overnight. Then, a DMSO solution (1%) containing HPH-15 (final concentration: 1 μM, 10 μM or 50 μM) was added to the medium, and the cells were further cultured for 24 hours. As a control, only DMSO solution (1%) was added, and the cells were cultured for 24 hours in the same manner. Next, […] of MTT reagent (3-(4,5-dimethyl-2-thiazolyl)-2,5-diphenyl-2H-tetrazolium bromide: 1.1 mg/mL: Dojindo Laboratories) was added to each well, and the cells were further cultured for 4 hours. After collecting the precipitated crystals, the supernatant was removed and DMSO ([…]) was added to completely dissolve the crystals. Cytotoxicity was evaluated by measuring the absorbance (550 nm) of the solution and determining the number of viable cells.
# herpes = details: Non-Patent Literature 2; cited from earlier work
# [1] = test system: myotube cell model L6-GLUT4myc, liver cell model HepG2 cells, adipocyte model 3T3-L1; assay: Glucose uptake (2-deoxyglucose) into cells; type: cell-based, rat, human, mouse; details: HPH-15 10 μM or 50 μM vs metformin 2 mM; 24 hours; 2-deoxyglucose 2 mM, 20 minutes
# Description: The uptake of glucose into cells by HPH-15 was examined using the myotube cell model L6-GLUT4myc, the liver cell model HepG2 cells, and the adipocyte model 3T3-L1.
# The myotube cell model L6-GLUT4myc, the liver cell model HepG2 cells, and the adipocyte model 3T3-L1 used in Example 1 were each seeded onto a 24-well plate (1×10^5 cells/well, […] of culture liquid) and cultured overnight. Then, a DMSO solution (1%) containing HPH-15 (final concentration: 10 μM or 50 μM), metformin (final concentration: 2 mM), or insulin (final concentration: 100 nM) was added to the medium, and the cells were further cultured for 24 hours. As a control, only DMSO solution (1%) was added, and the cells were cultured for 24 hours in the same manner. Next, the cells were washed with KRPH buffer (containing 2% BSA) and cultured in the presence of 2-deoxyglucose (final concentration: 2 mM, FUJIFILM Wako Pure Chemical Corp.) for 20 minutes at 37° C. The uptake of 2-deoxyglucose was stopped by washing the cells with cold PBS, and the amount of glucose taken up into the cells was measured using a Glucose Cellular Uptake Measurement Kit (Cosmo Bio).
# AMPK = assay: Activation of p-AMPK in mouse tissue (Western blotting); type: in vivo
# Description: High-fat diet-induced obesity model mice were prepared in the same manner as in Example 7. Then, HPH-15 (10 mg/kg or 100 mg/kg, […]) dissolved in olive oil or metformin (300 mg/kg, […]) was orally administered once a day for 28 days. Olive oil alone was administered as a control. After 28 days of administration of each, equal amounts (50 mg) of tissue pieces were collected from the liver, subcutaneous fat, and muscle tissues of the high-fat diet-induced obesity model mice, transferred to 1.5 mL Eppendorf tubes, and washed twice with PBS. After washing, the tissue pieces were transferred to BIOMASHER II, […] of RIPA buffer was added, and the tissue pieces were homogenized on ice. After homogenization, the tissue pieces were centrifuged (10,000 rpm, 4° C., 5 min) and the supernatant was obtained as a protein solution. The concentration of the proteins thus obtained was corrected based on the protein concentration measured by the BCA method using bicinchoninic acid (BCA), thereby preparing samples for Western blotting. Western blotting was performed in the same manner as in Example 1 described above, and the amount of p-AMPK/AMPK was calculated.
# [2] = HPH-15 10 or 100 mg/kg orally 28 days
smiles,measurement,setting,value
CC(C)(C)SCCNC(=S)c1cccc(C(=S)NCCSC(C)(C)C)n1 [HPH-15],cytotoxicity (number of viable cells),adipocyte model 3T3-L1,no cytotoxicity was confirmed
same,anti-herpes activity,herpes,has anti-herpes activity
same,glucose uptake amount,[1],increased the glucose uptake amount to the same extent as or to a greater extent than metformin
same,p-AMPK/AMPK in the liver,AMPK; [2],increased
same,p-AMPK/AMPK in the muscle,AMPK; [2],increased
same,p-AMPK/AMPK in the subcutaneous fat,AMPK; [2],increased
same,AMPK activation in the subcutaneous fat as compared to metformin,"AMPK; HPH-15 10 or 100 mg/kg vs metformin 300 mg/kg, orally 28 days",twice or more as compared to metformin
